Species on record: Rattus norvegicus
Experiment: DrugMatrix - Regimen: Daily Repeat
Assay type: toxicity, organism-based, Sprague-Dawley
Design: regimen Daily Repeat, gender Male, age 6-8 weeks
Conditions: in vivo, po, route oral GAVAGE, vehicle .5 % CMC; for ABSOLUTE BASOPHIL / ABSOLUTE EOSINOPHIL / ABSOLUTE LYMPHOCYTE / ABSOLUTE MONOCYTE / ABSOLUTE SEGMENTED NEUTROPHIL / BASOPHIL / EOSINOPHIL / ERYTHROCYTE COUNT / HEMATOCRIT / HEMOGLOBIN / LEUKOCYTE COUNT / LYMPHOCYTE / MEAN CORPUSCULAR HEMOGLOBIN / MEAN CORPUSCULAR HEMOGLOBIN CONCENTRATION / MONOCYTE / NEUTROPHIL / NUCLEATED RED BLOOD CELLS / PLATELET COUNT: tissue Blood; for ALANINE AMINOTRANSFERASE / ALBUMIN / ALKALINE PHOSPHATASE / ASPARTATE AMINOTRANSFERASE / BLOOD UREA NITROGEN / CARBON DIOXIDE / CHLORIDE / CHOLESTEROL / CREATINE PHOSPHOKINASE / CREATININE / GLUCOSE / LACTATE DEHYDROGENASE / LIPASE / PHOSPHORUS / POTASSIUM / SODIUM / TOTAL BILIRUBIN / TOTAL PROTEIN / URIC ACID: tissue Plasma
[1] = 0 mg/kg, 72 h, dose level Control, time 3 day
[2] = 0 mg/kg, 120 h, dose level Control, time 5 day
[3] = 3 mg/kg, 72 h, dose level Low, time 3 day

Compound: COc1cc2nc(N3CCN(C(=O)c4ccco4)CC3)nc(N)c2cc1OC [PRAZOSIN]
- ABSOLUTE BASOPHIL [1]: 0 CELLS/uL
- ABSOLUTE EOSINOPHIL [1]: 171.33 CELLS/uL
- ABSOLUTE LYMPHOCYTE [1]: 13776.5 CELLS/uL
- ABSOLUTE MONOCYTE [1]: 180.83 CELLS/uL
- ABSOLUTE SEGMENTED NEUTROPHIL [1]: 1121.33 CELLS/uL
- BASOPHIL [1]: 0%
- EOSINOPHIL [1]: 1%
- ERYTHROCYTE COUNT [1]: 5.56 x10E6/uL
- HEMATOCRIT [1]: 34.75%
- HEMOGLOBIN [1]: 13.68 G/DL
- LEUKOCYTE COUNT [1]: 15.25 x10E3/uL
- LYMPHOCYTE [1]: 90.17%
- MEAN CORPUSCULAR HEMOGLOBIN [1]: 24.6 pg
- MEAN CORPUSCULAR HEMOGLOBIN CONCENTRATION [1]: 39.4 G/DL
- MONOCYTE [1]: 1.17%
- NEUTROPHIL [1]: 7.67%
- NUCLEATED RED BLOOD CELLS [1]: 0 /100WBC
- PLATELET COUNT [1]: 1342 x10E3/uL
- ALANINE AMINOTRANSFERASE [1]: 49.67 u/L
- ALBUMIN [1]: 4.15 G/DL
- ALKALINE PHOSPHATASE [1]: 346.83 u/L
- ASPARTATE AMINOTRANSFERASE [1]: 108.17 u/L
- BLOOD UREA NITROGEN [1]: 17.33 mg/dL
- CARBON DIOXIDE [1]: 25 mmol/L
- CHLORIDE [1]: 100.83 MEQ/L
- CHOLESTEROL [1]: 66.83 mg/dL
- CREATINE PHOSPHOKINASE [1]: 788 u/L
- CREATININE [1]: 0.18 mg/dL
- GLUCOSE [1]: 151.67 mg/dL
- LACTATE DEHYDROGENASE [1]: 982.5 u/L
- LIPASE [1]: 10.33 u/L
- PHOSPHORUS [1]: 11.23 mg/dL
- POTASSIUM [1]: 6.37 MEQ/L
- SODIUM [1]: 141.02 MEQ/L
- TOTAL BILIRUBIN [1]: 0.18 mg/dL
- TOTAL PROTEIN [1]: 5.9 G/DL
- URIC ACID [1]: 1.8 mg/dL
- ABSOLUTE BASOPHIL [2]: 0 CELLS/uL
- ABSOLUTE EOSINOPHIL [2]: 69 CELLS/uL
- ABSOLUTE LYMPHOCYTE [2]: 13632.83 CELLS/uL
- ABSOLUTE MONOCYTE [2]: 139.83 CELLS/uL
- ABSOLUTE SEGMENTED NEUTROPHIL [2]: 1225 CELLS/uL
- BASOPHIL [2]: 0%
- EOSINOPHIL [2]: 0.33%
- ERYTHROCYTE COUNT [2]: 5.52 x10E6/uL
- HEMATOCRIT [2]: 33.98%
- HEMOGLOBIN [2]: 13.22 G/DL
- LEUKOCYTE COUNT [2]: 15.07 x10E3/uL
- LYMPHOCYTE [2]: 90.83%
- MEAN CORPUSCULAR HEMOGLOBIN [2]: 23.95 pg
- MEAN CORPUSCULAR HEMOGLOBIN CONCENTRATION [2]: 38.9 G/DL
- MONOCYTE [2]: 0.83%
- NEUTROPHIL [2]: 8%
- NUCLEATED RED BLOOD CELLS [2]: 0 /100WBC
- PLATELET COUNT [2]: 1196 x10E3/uL
- ALANINE AMINOTRANSFERASE [2]: 49.17 u/L
- ALBUMIN [2]: 4.2 G/DL
- ALKALINE PHOSPHATASE [2]: 352.33 u/L
- ASPARTATE AMINOTRANSFERASE [2]: 89.67 u/L
- BLOOD UREA NITROGEN [2]: 18 mg/dL
- CARBON DIOXIDE [2]: 27.67 mmol/L
- CHLORIDE [2]: 101 MEQ/L
- CHOLESTEROL [2]: 72.83 mg/dL
- CREATINE PHOSPHOKINASE [2]: 417.5 u/L
- CREATININE [2]: 0.18 mg/dL
- GLUCOSE [2]: 150.5 mg/dL
- LACTATE DEHYDROGENASE [2]: 517.33 u/L
- LIPASE [2]: 9 u/L
- PHOSPHORUS [2]: 11.87 mg/dL
- POTASSIUM [2]: 6.57 MEQ/L
- SODIUM [2]: 143.62 MEQ/L
- TOTAL BILIRUBIN [2]: 0.2 mg/dL
- TOTAL PROTEIN [2]: 6.08 G/DL
- URIC ACID [2]: 1.45 mg/dL
- ABSOLUTE BASOPHIL [3]: 0 CELLS/uL
- ABSOLUTE EOSINOPHIL [3]: 118.67 CELLS/uL
- ABSOLUTE LYMPHOCYTE [3]: 13015.33 CELLS/uL
- ABSOLUTE MONOCYTE [3]: 208 CELLS/uL
- ABSOLUTE SEGMENTED NEUTROPHIL [3]: 1224.67 CELLS/uL
- BASOPHIL [3]: 0%
- EOSINOPHIL [3]: 0.67%
- ERYTHROCYTE COUNT [3]: 5.43 x10E6/uL
- HEMATOCRIT [3]: 33.53%
- HEMOGLOBIN [3]: 13.07 G/DL
- LEUKOCYTE COUNT [3]: 14.57 x10E3/uL
- LYMPHOCYTE [3]: 89.67%
- MEAN CORPUSCULAR HEMOGLOBIN [3]: 24.1 pg
- MEAN CORPUSCULAR HEMOGLOBIN CONCENTRATION [3]: 38.97 G/DL
- MONOCYTE [3]: 1.33%
- NEUTROPHIL [3]: 8.33%
- NUCLEATED RED BLOOD CELLS [3]: 0 /100WBC
- PLATELET COUNT [3]: 1384.67 x10E3/uL
- ALANINE AMINOTRANSFERASE [3]: 59.67 u/L
- ALBUMIN [3]: 3.97 G/DL
- ALKALINE PHOSPHATASE [3]: 505 u/L
- ASPARTATE AMINOTRANSFERASE [3]: 74.67 u/L
- BLOOD UREA NITROGEN [3]: 13.33 mg/dL
- CARBON DIOXIDE [3]: 24.33 mmol/L
- CHLORIDE [3]: 102 MEQ/L
- CHOLESTEROL [3]: 70 mg/dL
- CREATINE PHOSPHOKINASE [3]: 271 u/L
- CREATININE [3]: 0.22 mg/dL
- GLUCOSE [3]: 128.67 mg/dL
- LACTATE DEHYDROGENASE [3]: 254.33 u/L
- LIPASE [3]: 10.67 u/L
- PHOSPHORUS [3]: 12.33 mg/dL
- POTASSIUM [3]: 6.67 MEQ/L
- SODIUM [3]: 142.25 MEQ/L
- TOTAL BILIRUBIN [3]: 0.2 mg/dL
- TOTAL PROTEIN [3]: 5.63 G/DL
- URIC ACID [3]: 1.43 mg/dL
